The source of these data is patent US6924300B2, “Oxyiminoalkanoic acid derivatives” (Takeda Chemical Industries, Ltd., priority 1998, dated 2005).

Each structure is given as a SMILES string.

For the molecule `Cc1oc(-c2ccco2)nc1COc1ccc(CO/N=C(\CCCCC(=O)O)c2ccccc2)cc1` [Example 132, E-6-[4-[2-(2-furyl)-5-methyl-4-oxazolylmethoxy]benzyloxyimino]-6-phenylhexanoic acid], the melting point (commonly the temperature, or range, at which the solid turns liquid) is 112 to 113 °C.

`O=C(O)CC/C(=N\OCc1ccc(OCc2coc(-c3ccccc3)n2)cc1)c1ccccc1` [Example 102, E-4-phenyl-4-[4-(2-phenyl-4-oxazolylmethoxy)benzyloxyimino]butyric acid] displayed a melting point of 144 to 145 °C.

`Cc1oc(-c2ccccc2)nc1COc1ccc(CO/N=C(\CCC(=O)O)c2ccco2)cc1` [Example 72, E-4-(2-furyl)-4-[4-(5-methyl-2-phenyl-4-oxazolylmethoxy)benzyloxyimino]butyric acid]: the melting point is 124 to 125 °C.

Turning to `Cc1oc(-c2ccccc2)nc1COc1ccc(CO/N=C(\CCCCC(N)=O)c2ccccc2)cc1` [Example 82, E-6-[4-(5-methyl-2-phenyl-4-oxazolylmethoxy)benzyloxyimino]-6-phenylhexanamide], the melting point was 95 to 96 °C.

Regarding `Cc1oc(-c2ccccc2)nc1COc1ccc(CO/N=C(/CCCCC(=O)O)c2ccccc2)cc1` [Example 61, Z-6-[4-(5-methyl-2-phenyl-4-oxazolylmethoxy)benzyloxyimino]-6-phenylhexanoic acid], the melting point fell in the range of 101 to 102 °C.

The molecule `Cc1oc(-c2ccco2)nc1COc1ccc(CO/N=C(\CCCCCCC(=O)O)c2ccccc2)cc1` [Example 129, E-8-[4-[2-(2-furyl)-5-methyl-4-oxazolylmethoxy]benzyloxyimino]-8-phenyloctanoic acid] yielded a melting point of 75 to 77 °C.

Molecule `Cc1oc(-c2ccccc2)nc1COc1ccc(CO/N=C(\CCCC(C)(C)C(=O)O)c2ccccc2)cc1` [Example 141, E-2,2-dimethyl-6-[4-(5-methyl-2-phenyl-4-oxazolylmethoxy)benzyloxyimino]-6-phenylhexanoic acid] had a melting point of 111 to 112 °C.

For `Cc1oc(-c2ccccc2)nc1COc1ccc(CO/N=C(/C(=O)O)c2ccc(F)cc2)cc1` [Example 16, E-2-(4-fluorophenyl)-2-[4-(5-methyl-2-phenyl-4-oxazolylmethoxy)benzyloxyimino]acetic acid], the melting point is 150 to 151 °C (dec.).

Turning to `O=C(O)CCCCCC/C(=N\OCc1ccc(OCc2noc(-c3ccccc3)n2)cc1)c1ccccc1` [Example 128, E-8-phenyl-8-[4-(5-phenyl-1,2,4-oxadiazol-3-ylmethoxy)benzyloxyimino]octanoic acid], the melting point lay in the range of 76 to 77 °C.

With `Cc1oc(-c2ccccc2)nc1COc1ccc(CO/N=C(\C(=O)O)c2cccc(Br)c2)cc1` [Example 43, Z-2-(3-bromophenyl)-2-[4-(5-methyl-2-phenyl-4-oxazolylmethoxy)benzyloxyimino]acetic acid], the melting point is 181 to 182 °C (dec.).

Regarding `Cc1oc(-c2ccccc2)nc1COc1ccc(CO/N=C(\C(=O)O)c2ccc(F)cc2)cc1` [Example 15, Z-2-(4-fluorophenyl)-2-[4-(5-methyl-2-phenyl-4-oxazolylmethoxy)benzyloxyimino]acetic acid], the melting point is 182 to 183 °C (dec.).

In turn, `Cc1oc(-c2ccccc2)nc1COc1ccc(CO/N=C(\CCC(=O)O)c2ccc(Oc3ccccc3)cc2)cc1` [Example 47, E-4-[4-(5-methyl-2-phenyl-4-oxazolylmethoxy)benzyloxyimino]-4-(4-phenoxyphenyl)butyric acid] gave a melting point of 131 to 132 °C.

For `Cc1oc(-c2ccco2)nc1COc1ccc(CO/N=C(\CCC(=O)O)c2ccccc2)cc1` [Example 94, E-4-[4-[2-(2-furyl)-5-methyl-4-oxazolylmethoxy]benzyloxyimino]-4-phenylbutyric acid], the melting point lay in the range of 124 to 125 °C.

`Cc1oc(-c2ccccc2)nc1COc1ccc(CO/N=C(\CCCCCCC(=O)O)c2ccc(Cl)cc2)cc1` [Example 123, E-8-(4-chlorophenyl)-8-[4-(5-methyl-2-phenyl-4-oxazolylmethoxy)benzyloxyimino]octanoic acid] displayed a melting point of 90 to 91 °C.

With `Cc1oc(-c2ccccc2)nc1COc1ccc(CO/N=C(\Cc2ccccc2)C(=O)O)cc1` [Example 6, E-2-[4-(5-methyl-2-phenyl-4-oxazolylmethoxy)benzyloxyimino]-3-phenylpropionic acid], the melting point is 143 to 144 °C (dec.).

Take `Cc1oc(-c2ccccc2)nc1COc1ccc(CO/N=C(/C(=O)O)c2cccc(Oc3ccccc3)c2)cc1` [Example 14, E-2-[4-(5-methyl-2-phenyl-4-oxazolylmethoxy)benzyloxyimino]-2-(3-phenoxyphenyl)acetic acid]: the melting point lay within 55 to 65 °C.

`COc1cc(CO/N=C(\CCC(=O)O)c2ccccc2)ccc1OCc1nc(-c2ccccc2)oc1C` [Example 150, E-4-[3-methoxy-4-(5-methyl-2-phenyl-4-oxazolylmethoxy)benzyloxyimino]-4-phenylbutyric acid]: the melting point was 134 to 135 °C.

`Cc1oc(-c2ccccc2)nc1COc1ccc(CO/N=C(\CCCCCCC(=O)O)c2ccc(F)cc2)cc1` [Example 125, E-8-(4-fluorophenyl)-8-[4-(5-methyl-2-phenyl-4-oxazolylmethoxy)benzyloxyimino]octanoic acid]: the melting point fell in the range of 79 to 80 °C.

As to `Cc1oc(-c2ccccc2)nc1COc1ccc(CO/N=C(\C(=O)O)c2cccc(C(=O)c3ccccc3)c2)cc1` [Example 40, Z-2-(3-benzoylphenyl)-2-[4-(5-methyl-2-phenyl-4-oxazolylmethoxy)benzyloxyimino]acetic acid], the melting point was 185 to 186 °C (dec.).

On to `O=C(O)CC/C(=N\OCc1ccc(OCc2cc(-c3ccccc3)on2)cc1)c1ccccc1` [Example 90, E-4-phenyl-4-[4-(5-phenyl-3-isoxazolylmethoxy)benzyloxyimino]butyric acid], for which the melting point was in the range of 100 to 101 °C.

Molecule `C/C(=N\OCc1ccc(OCc2nc(-c3ccccc3)oc2C)cc1)C(=O)O` [Example 9, E-2-[4-(5-methyl-2-phenyl-4-oxazolylmethoxy)benzyloxyimino]propionic acid] gave a melting point of 147 to 148 °C.

Regarding `Cc1oc(-c2ccccc2)nc1COc1ccc(CO/N=C(\CCCCC(=O)NS(C)(=O)=O)c2ccccc2)cc1` [Example 142, E-N-methanesulfonyl-6-[4-(5-methyl-2-phenyl-4-oxazolylmethoxy)benzyloxyimino]-6-phenylhexanamide], the melting point lay within 130 to 132 °C.

As to `COc1ccc(/C(CCCCCCC(=O)O)=N/OCc2ccc(OCc3nc(-c4ccccc4)oc3C)cc2)cc1` [Example 118, E-8-(4-methoxyphenyl)-8-[4-(5-methyl-2-phenyl-4-oxazolylmethoxy)benzyloxyimino]octanoic acid], the melting point lay in the range of 69 to 70 °C.

In turn, `O=C(O)CCCC/C(=N\OCc1ccc(OCc2noc(-c3ccccc3)n2)cc1)c1ccccc1` [Example 136, E-6-phenyl-6-[4-(5-phenyl-1,2,4-oxadiazol-3-ylmethoxy)benzyloxyimino]hexanoic acid] displayed a melting point of 88 to 89 °C.

Molecule `O=C(O)CC/C(=N\OCc1ccc(OCc2cn3c(-c4ccccc4)cccc3n2)cc1)c1ccccc1` [Example 57, E-4-[4-(5-phenylimidazo[1,2-a]pyridin-2-ylmethoxy)benzyloxyimino]-4-phenylbutyric acid] displayed a melting point of 160 to 161 °C.

Molecule `COC(=O)CC/C(=N\OCc1ccc(OCc2nc(-c3ccco3)oc2C)c(OC)c1)c1ccccc1` [Example 147, methyl E-4-[4-[2-(2-furyl)-5-methyl-4-oxazolylmethoxy]-3-methoxybenzyloxyimino]-4-phenylbutyrate] registered a melting point of 67 to 69 °C.

Regarding `Cc1oc(-c2ccccc2)nc1COc1ccc(CO/N=C(\CCC(=O)O)c2ccccn2)cc1` [Example 64, E-4-[4-(5-methyl-2-phenyl-4-oxazolylmethoxy)benzyloxyimino]-4-(2-pyridyl)butyric acid], the melting point lay in the range of 116 to 117 °C.

Turning to `Cc1oc(-c2ccccc2)nc1COc1ccc(CO/N=C(\CCCCC(=O)O)c2ccccc2)cc1` [Example 60, E-6-[4-(5-methyl-2-phenyl-4-oxazolylmethoxy)benzyloxyimino]-6-phenylhexanoic acid], the melting point is 112 to 113 °C.

In turn, `CCCC/C(=N\OCc1ccc(OCc2nc(-c3ccccc3)oc2C)cc1)C(=O)O` [Example 8, E-2-[4-(5-methyl-2-phenyl-4-oxazolylmethoxy)benzyloxyimino]hexanoic acid] came in with a melting point of 112 to 114 °C.

Molecule `CCOC(=O)/C(=N\OCc1ccc(OCc2nc(-c3ccccc3)oc2C)cc1)c1ccc(OC)cc1` [Example 19, ethyl Z-2-(4-methoxyphenyl)-2-[4-(5-methyl-2-phenyl-4-oxazolylmethoxy)benzyloxyimino]acetate] displayed a melting point of 102 to 103 °C.

`Cc1oc(-c2ccccc2)nc1COc1ccc(CO/N=C2\CC(C(=O)O)c3ccccc32)cc1` (centres unmarked) [Example 62, E-3-[4-(5-methyl-2-phenyl-4-oxazolylmethoxy)benzyloxyimino]-1-indancarboxylic acid] returned a melting point of 148 to 149 °C.

Take `Cc1oc(-c2ccccc2)nc1COc1ccc(CCCO/N=C(\C(=O)O)c2ccccc2)cc1` [Example 2, Z-2-[3-[4-(5-methyl-2-phenyl-4-oxazolylmethoxy)phenyl]propoxyimino]-2-phenylacetic acid]: the melting point is 165 to 166 °C (dec.).

In the case of `COC(=O)CC/C(=N\OCc1ccc(OCCc2nc(-c3ccccc3)oc2C)cc1)c1ccccc1` [Example 48, methyl E-4-[4-[2-(5-methyl-2-phenyl-4-oxazolyl)ethoxy]benzyloxyimino]-4-phenylbutyrate], the melting point lay in the range of 73 to 74 °C.

`Cc1oc(-c2ccccc2)nc1COc1ccccc1CO/N=C(\CCC(=O)O)c1ccccc1` [Example 144, E-4-[2-(5-methyl-2-phenyl-4-oxazolylmethoxy)benzyloxyimino]-4-phenylbutyric acid] displayed a melting point of 116 to 117 °C.

In the case of `Cc1oc(-c2ccccc2)nc1COc1cccc(CO/N=C(\CCCCC(=O)O)c2ccccc2)c1` [Example 76, E-6-[3-(5-methyl-2-phenyl-4-oxazolylmethoxy)benzyloxyimino]-6-phenylhexanoic acid], the melting point was 114 to 115 °C.
